Laboratory results taken from patent US20170045513A1, “METHODS OF DIAGNOSING CELIAC DISEASE USING IP-10” (ImmusanT, Inc., priority 2014, published 2017).
Non-standard residues stand in square brackets, D forms with d. pGlu = O=C1CC[C@@H](C(=O)O)N1

Test system: gluten-reactive T cells
Assay: Overnight IFNγ ELISpot assay with fresh PBMC
Assay type: cell-based, human
Conditions: for Percent of maximal response to individual gluten peptides, ELISp: after oral gluten challenge; for IFNγ ELISpot % max Mean: n = 5, blood after oral gluten challenge, individual peptides 5 μM (Peptide 2* of P14, Pepscan: 10 μg/mL (5.45 μM))
Method: HLA-DQ2.5-positive celiac disease subjects on gluten-free diet were used in this study. Blood was collected immediately before and 6 days after commencing 3-day oral gluten challenge. Whole blood or PBMCs were incubated with pools or single peptides derived from gluten or recall antigens. IFNγ and IP-10 levels were measured in plasma from the whole blood that was incubated in 96-well plates with peptides or peptide pools. Plasma cytokine/chemokine levels were measured by MAGPIX® multiplex bead assay (IFNγ and IP-10) or by ELISA (IFNγ and IP-10), and PBMC separated from the same blood sample were incubated in overnight IFNγ ELISpot assays.
Overnight IFNγ ELISpot assays (Human IFN-γ ELISpotPRO kit, transparent, ALP; Mabtech AB, #3420-2APT-10) were performed using PBMC freshly separated from heparinized blood diluted 1:1 in PBS with 2% fetal bovine serum (Stemcell Technologies #07905; Vancouver, BC, V5Z 1B3, Canada) overlaid on density gradient medium (Ficoll-Paque™ PLUS; GE Healthcare Lice Sciences #:17-1440-02) in SepMate™-50 tubes (Stemcell Technologies #15460). PBMC (8 million/mL) were resuspended in serum-free medium with gentamicin and phenol red (X-VIVO™15; Lonza, Walkersville Mass. 21793). PBMC (0.4 million/50 pt/well) and incubated with 50 μL 80% X-vivo15, 0.2% DMSO and 20% PBS in three triplicate wells (“medium only”), or with 50 μL PHA-L 20 μg/ml or peptide at 2× final concentration in 80% X-vivo15, 0.2% DMSO and 20% PBS. Peptide solutions to be added to individual ELISpot wells were prepared in 96-well U-bottom plates (60 pt/well) that were then sealed with adhesive ELISA plate cover slips before replacing the plastic lid and being frozen at −80° C. 96-well plates containing peptide solutions were thawed at room temperature for 10 min while being centrifuged at 300 g immediately prior to being added to ELISpot wells. Peptide pools and mitogen were assessed in triplicate wells, and individual peptides were assessed in duplicate wells. X-VIVO™15 (50 μL) was incubated with 80% X-vivo15, 0.2% DMSO and 20% PBS (50 μL) in triplicate wells (“no PBMC” control). A Zeiss automated ELISpot counter was used to determine spot forming units (SFU) per well (Zellnet Inc., Fort Lee, N J 07024). Laboratory staff were unaware of the arrangement of peptide solutions in ELISpot wells during assay setup and plate counting.

Substance	Percent of maximal response to individual gluten peptides, ELISp (Subject 3, Max. 18 SFU)	Percent of maximal response to individual gluten peptides, ELISp (Subject 4, Max. 36 SFU)	Percent of maximal response to individual gluten peptides, ELISp (Subject 6, Max. 16 SFU)	Percent of maximal response to individual gluten peptides, ELISp (Subject 8, Max. 17 SFU)	Percent of maximal response to individual gluten peptides, ELISp (Subject 10, Max. 11 SFU)	IFNγ ELISpot % max Mean [% max]	IFNγ ELISpot response relative to Peptide 14 5 μM (Peptide 3 10 μg/mL (5.3 μM))
(pE)LQPFPQPELPYPQPQ-amide ([pGlu]LQPFPQPELPYPQPQ-NH2; SMILES CC(C)C[C@H](NC(=O)[C@@H]1CCC(=O)N1)C(=O)N[C@@H](CCC(N)=O)C(=O)N1CCC[C@H]1C(=O)N[C@@H](Cc1ccccc1)C(=O)N1CCC[C@H]1C(=O)N[C@@H](CCC(N)=O)C(=O)N1CCC[C@H]1C(=O)N[C@@H](CCC(=O)O)C(=O)N[C@@H](CC(C)C)C(=O)N1CCC[C@H]1C(=O)N[C@@H](Cc1ccc(O)cc1)C(=O)N1CCC[C@H]1C(=O)N[C@@H](CCC(N)=O)C(=O)N1CCC[C@H]1C(=O)N[C@@H](CCC(N)=O)C(N)=O) [Peptide 1]	11 % of max	22 % of max	25 % of max	0 % of max	9 % of max	13	
(pE)PEQPEQPFPEQPQQ-amide ([pGlu]PEQPEQPFPEQPQQ-NH2; SMILES NC(=O)CC[C@H](NC(=O)[C@H](CCC(N)=O)NC(=O)[C@@H]1CCCN1C(=O)[C@H](CCC(N)=O)NC(=O)[C@H](CCC(=O)O)NC(=O)[C@@H]1CCCN1C(=O)[C@H](Cc1ccccc1)NC(=O)[C@@H]1CCCN1C(=O)[C@H](CCC(N)=O)NC(=O)[C@H](CCC(=O)O)NC(=O)[C@@H]1CCCN1C(=O)[C@H](CCC(N)=O)NC(=O)[C@H](CCC(=O)O)NC(=O)[C@@H]1CCCN1C(=O)[C@@H]1CCC(=O)N1)C(N)=O) [Peptide 11]	0 % of max	3 % of max	6 % of max	6 % of max	0 % of max	3	
(pE)PEQPFPEQPIPEQPQPYP-amide ([pGlu]PEQPFPEQPIPEQPQPYP-NH2; SMILES CC[C@H](C)[C@H](NC(=O)[C@@H]1CCCN1C(=O)[C@H](CCC(N)=O)NC(=O)[C@H](CCC(=O)O)NC(=O)[C@@H]1CCCN1C(=O)[C@H](Cc1ccccc1)NC(=O)[C@@H]1CCCN1C(=O)[C@H](CCC(N)=O)NC(=O)[C@H](CCC(=O)O)NC(=O)[C@@H]1CCCN1C(=O)[C@@H]1CCC(=O)N1)C(=O)N1CCC[C@H]1C(=O)N[C@@H](CCC(=O)O)C(=O)N[C@@H](CCC(N)=O)C(=O)N1CCC[C@H]1C(=O)N[C@@H](CCC(N)=O)C(=O)N1CCC[C@H]1C(=O)N[C@@H](Cc1ccc(O)cc1)C(=O)N1CCC[C@H]1C(N)=O) [Peptide 14]	100 % of max	100 % of max	100 % of max	100 % of max	100 % of max	100	
(pE)PEQPIPEQPQPYPQQ-amide ([pGlu]PEQPIPEQPQPYPQQ-NH2; SMILES CC[C@H](C)[C@H](NC(=O)[C@@H]1CCCN1C(=O)[C@H](CCC(N)=O)NC(=O)[C@H](CCC(=O)O)NC(=O)[C@@H]1CCCN1C(=O)[C@@H]1CCC(=O)N1)C(=O)N1CCC[C@H]1C(=O)N[C@@H](CCC(=O)O)C(=O)N[C@@H](CCC(N)=O)C(=O)N1CCC[C@H]1C(=O)N[C@@H](CCC(N)=O)C(=O)N1CCC[C@H]1C(=O)N[C@@H](Cc1ccc(O)cc1)C(=O)N1CCC[C@H]1C(=O)N[C@@H](CCC(N)=O)C(=O)N[C@@H](CCC(N)=O)C(N)=O) [Peptide 3]	50 % of max	83 % of max	69 % of max	53 % of max	9 % of max	53	only one-half
(pE)PQPYPEQPQPFPQQ-amide ([pGlu]PQPYPEQPQPFPQQ-NH2; SMILES NC(=O)CC[C@H](NC(=O)[C@H](CCC(N)=O)NC(=O)[C@@H]1CCCN1C(=O)[C@H](Cc1ccccc1)NC(=O)[C@@H]1CCCN1C(=O)[C@H](CCC(N)=O)NC(=O)[C@@H]1CCCN1C(=O)[C@H](CCC(N)=O)NC(=O)[C@H](CCC(=O)O)NC(=O)[C@@H]1CCCN1C(=O)[C@H](Cc1ccc(O)cc1)NC(=O)[C@@H]1CCCN1C(=O)[C@H](CCC(N)=O)NC(=O)[C@@H]1CCCN1C(=O)[C@@H]1CCC(=O)N1)C(N)=O) [Peptide 8]	44 % of max	64 % of max	31 % of max	18 % of max	27 % of max	37	
(pE)QPFPQPELPYPYPQ-amide ([pGlu]QPFPQPELPYPYPQ-NH2; SMILES CC(C)C[C@H](NC(=O)[C@H](CCC(=O)O)NC(=O)[C@@H]1CCCN1C(=O)[C@H](CCC(N)=O)NC(=O)[C@@H]1CCCN1C(=O)[C@H](Cc1ccccc1)NC(=O)[C@@H]1CCCN1C(=O)[C@H](CCC(N)=O)NC(=O)[C@@H]1CCC(=O)N1)C(=O)N1CCC[C@H]1C(=O)N[C@@H](Cc1ccc(O)cc1)C(=O)N1CCC[C@H]1C(=O)N[C@@H](Cc1ccc(O)cc1)C(=O)N1CCC[C@H]1C(=O)N[C@@H](CCC(N)=O)C(N)=O) [Peptide 16]	22 % of max	31 % of max	19 % of max	24 % of max	27 % of max	24	
(pE)QPFPQPEQPFPLQPEQP-amide ([pGlu]QPFPQPEQPFPLQPEQP-NH2; SMILES CC(C)C[C@H](NC(=O)[C@@H]1CCCN1C(=O)[C@H](Cc1ccccc1)NC(=O)[C@@H]1CCCN1C(=O)[C@H](CCC(N)=O)NC(=O)[C@H](CCC(=O)O)NC(=O)[C@@H]1CCCN1C(=O)[C@H](CCC(N)=O)NC(=O)[C@@H]1CCCN1C(=O)[C@H](Cc1ccccc1)NC(=O)[C@@H]1CCCN1C(=O)[C@H](CCC(N)=O)NC(=O)[C@@H]1CCC(=O)N1)C(=O)N[C@@H](CCC(N)=O)C(=O)N1CCC[C@H]1C(=O)N[C@@H](CCC(=O)O)C(=O)N[C@@H](CCC(N)=O)C(=O)N1CCC[C@H]1C(N)=O) [Peptide 6]	11 % of max	56 % of max	31 % of max	0 % of max	9 % of max	21	
(pE)QPFPQPEQPFSQQ-amide ([pGlu]QPFPQPEQPFSQQ-NH2; SMILES NC(=O)CC[C@H](NC(=O)[C@H](CCC(N)=O)NC(=O)[C@H](CO)NC(=O)[C@H](Cc1ccccc1)NC(=O)[C@@H]1CCCN1C(=O)[C@H](CCC(N)=O)NC(=O)[C@H](CCC(=O)O)NC(=O)[C@@H]1CCCN1C(=O)[C@H](CCC(N)=O)NC(=O)[C@@H]1CCCN1C(=O)[C@H](Cc1ccccc1)NC(=O)[C@@H]1CCCN1C(=O)[C@H](CCC(N)=O)NC(=O)[C@@H]1CCC(=O)N1)C(N)=O) [Peptide 7]	0 % of max	11 % of max	6 % of max	0 % of max	9 % of max	5	
